Source: patent US5391569A, “New chromene compounds having a triene side chain” (Adir et Compagnie, priority 1992, dated 1995)
Read-outs that look alike come from different tables or passages of the source.

Assays:
[1] = molecular target: porcine pancreatic phospholipase A2 (PLA2) (Sus scrofa, UniProt P00592); assay: Inhibition of liberation of tritiated oleic acid from Escherichia coli membranes by porcine pancreatic phospholipase A2; assay type: biochemical; conditions: Test on Escherichia coli membranes
porcine pancreatic phospholipase A2 (PLA2), sequence (P00592 23-146): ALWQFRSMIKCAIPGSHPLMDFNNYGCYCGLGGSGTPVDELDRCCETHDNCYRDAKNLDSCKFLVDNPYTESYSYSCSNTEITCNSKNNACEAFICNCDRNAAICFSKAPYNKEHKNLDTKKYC
Description: The compounds of the present invention have an inhibiting activity on the liberation of tritiated oleic acid previously incorporated into Escherichia coli membranes under the effect of porcine pancreatic phospholipase A2 (PLA2) according to the technique described by Frason, Patriarca and Elsbach (J. Lipid. Res., 15, (1974), 380-388).

endogenous membrane PLA2 = assay: Inhibition of liberation of arachidonic acid from isolated rat polymorphonuclears stimulated by ionophore; assay type: cell-based; conditions: Test on rat PMNs; ionophore stimulation
Description: In a cell model involving endogenous membrane PLA2, the compounds of the invention also exerted an inhibiting effect on the liberation of arachidonic acid by their action on isolated rat polymorphonuclears (PLN), the membrane phospholipids of which had been labelled with tritiated arachidonic acid. The degree of activity of the compounds of the invention is assessed by measuring the radioactivity liberated after stimulation by ionophore […] according to the technique described by Sakson, Raz, Denny, Wyche and Needleman (Prostaglandins, 14, (1977), 853, sqq.).

mouse calvaria [2] = assay: Anti-bone resorption-1: inhibition of hyper-resorption in mouse calvaria (in vitro); assay type: cell-based; conditions: for inhibition at 10 µM / inhibition at 50 µM: hyper-resorption induced by 5×10^-8 M retinoic acid; for inhibition at 7.5 µM: 7,5 μM
[3] = test system: mice in which a state of hyper-resorption had been induced by a calcium-deficient diet; assay: Anti-bone resorption-2: in vivo urinary [3H] tetracycline excretion in mice with hyper-resorption induced by calcium-deficient diet; conditions: calcium-deficient diet (0.4%)
Description: In vivo study according to the measurement method described by Konig, Muhlbauer and Fleisch ("Tumor necrosis factor and interleukine-1 stimulate bone resorption in vivo as measured by urinary [^3 H] tetracycline excretion from prelabeled mice", J. Bone Min. Res., 3, (1988), 621-627). A study was carried out on mice in which a state of hyper-resorption had been induced by a calcium-deficient diet (0.4%).

mouse calvaria [4] = assay: Formation of osteoid tissue: incorporation of tritiated proline into bone tissue of mouse calvaria; assay type: cell-based; conditions: read-out: Stimulation of formation
Description: An effect promoting the formation of osteoid tissue (incorporation of tritiated proline from the medium into the bone tissue of mouse calvaria) has also been observed with some compounds: […]

SMILES | IC50 [1] [µM] | IC50 (endogenous membrane PLA2) [µM] | further results
Cc1cc(Cl)cc2c1OC(C)(C)C(/C=C/C=C/C=C/C(=O)O)=C2 [Example 19, (2E,4E,6E)-7-(2,2,8-Trimethyl-6-chloro-2H-chromen-3-yl)hepta-2,4,6-trienoic acid] | 30 | 50 | 
CCOC(=O)\C=C(C)/C=C/C=C(\C)C1=Cc2cc(-c3ccccc3)ccc2OC1 [Example 27] | 7.5 |  | inhibition at 10 µM (mouse calvaria [2]): 11%
Cc1cc(C)c2c(c1)C=C(/C=C/C=C/C=C\C(=O)O)CO2 [Example 2, (2Z,4E,6E)-7-(6,8-Dimethyl-2H-chromen-3-yl) hepta-2,4,6-trienoicacid] |  |  | % variation in urinary [3H] tetracycline excretion ([3]; oral dose 50 mg/kg): -10%; % variation in urinary [3H] tetracycline excretion ([3]; oral dose 100 mg/kg): -10%; % variation in urinary [3H] tetracycline excretion ([3]; oral dose 200 mg/kg): -12%
CC(/C=C/C=C(\C)C1=Cc2cc(C(C)(C)C)ccc2OC1)=C\C(=O)O [Example 41, (2E,4E,6E)-7-(6-Tert.-butyl-2H-chromen-3-yl)-3-methylocta-2,4,6-trienoic acid] | 4 |  | 
Cc1cc(C)c2c(c1)C=C(/C=C/C=C/C=C/C(=O)O)C(C)(C)O2 [Example 18, (2E,4E,6E)-7-(2,2,6,8-Tetramethyl-2H-chromen-3-yl)hepta-2,4,6-trienoic acid] | 30 | 30 | 
CCOC(=O)/C=C(C)/C=C/C=C(C)/C=C/c1c(C)cc(OC)c(C)c1C [Etretinate, reference compound] |  |  | inhibition at 50 µM (mouse calvaria [2]): 11%; Effect on hyper-resorption / urinary excretion of tritiated tetracycline (in words) [3]: tends to increase the urinary excretion of tritiated tetracycline; % variation in urinary [3H] tetracycline excretion ([3]; oral dose 50 mg/kg): +11%; % variation in urinary [3H] tetracycline excretion ([3]; oral dose 100 mg/kg): +3%
CC(C)(C)c1ccc2c(c1)C=C(/C=C/C=C/C=C/C(=O)O)CO2 [Example 6, (2E,4E,6E)-7-(6-Tert.-butyl-2H-chromen-3-yl) hepta-2,4,6-trienoic acid] | 9 | 10 | 
CCOC(=O)/C=C(C)/C=C/C=C(\C)C1=Cc2cc(C)cc(C)c2OC1 [Example 35, Ethyl (2E,4E,6E)-7-(6,8-dimethyl-2H-chromen-3-yl)-3-methylocta-2,4,6-trienoate] | 5 |  | inhibition at 10 µM (mouse calvaria [2]): 15%; inhibition at 50 µM (mouse calvaria [2]): 32%; inhibition at 7.5 µM (mouse calvaria [2]; parathormone (PTH) 500 ng/ml, read-out: Hyper-resorption with PTH): 12%; inhibition at 7.5 µM (mouse calvaria [2]; retinoic acid, read-out: Hyper-resorption with retinoic acid): 9%; activation at 10 µM (mouse calvaria [4]): 11%
CC(/C=C/C=C(\C)C1=Cc2cc(-c3ccccc3)ccc2OC1)=C\C(=O)O [Example 26, (2E,4E,6E)-3-Methyl-7-(6-phenyl-2H-chromen-3-yl)octa-2,4,6-trienoic acid] | 5 |  | inhibition at 10 µM (mouse calvaria [2]): 11%; inhibition at 50 µM (mouse calvaria [2]): 29%; activation at 10 µM (mouse calvaria [4]): 7%
Cc1cc(Cl)cc2c1OCC(/C=C/C=C/C=C/C(=O)O)=C2 [Example 15, (2E,4E,6E)-7-(6-Chloro-8-methyl-2H-chromen-3-yl)hepta-2,4,6-trienoic acid] | 10 | 50 | 
CCOC(=O)/C=C(C)/C=C/C=C(\C)C1=Cc2cc(C(C)(C)C)ccc2OC1 [Example 33, Ethyl (2E,4E,6E)-7-(6-tert.-butyl-2H-chromen-3-yl)-3-methylocta-2,4,6-trienoate] |  |  | inhibition at 10 µM (mouse calvaria [2]): 3%

More lines, main results first:

IC50 [1] [µM] | IC50 (endogenous membrane PLA2) [µM] | SMILES | further results
7.5 |  | CCOC(=O)/C=C(C)/C=C/C=C(\C)C1=Cc2cc(C)ccc2OC1 [Example 32, Ethyl (2E,4E,6E)-7-(6-methyl-2H-chromen-3-yl)-3-methylocta-2,4,6-trienoate] | inhibition at 10 µM (mouse calvaria [2]): 14%; inhibition at 50 µM (mouse calvaria [2]): 12%
5 |  | CCOC(=O)/C=C(C)/C=C/C=C(\C)C1=Cc2cc(C(C)(C)C)cc(C)c2OC1 [Example 36, Ethyl (2E,4E,6E)-7-(6-tert.-butyl-8-methyl-2H-chromen-3-yl)-3-methylocta-2,4,6-trienoate] | 
3 | 5 | CC(C)(C)c1cc2c(c(C(C)(C)C)c1)OCC(/C=C/C=C/C=C/C(=O)O)=C2 [Example 13, (2E,4E,6E)-7-(6,8-Ditert.-butyl-2H-chromen-3-yl)hepta-2,4,6-trienoic acid] | 
7.5 | 30 | CC(C)c1ccc2c(c1)C=C(/C=C/C=C/C=C/C(=O)O)CO2 [Example 5, (2E,4E,6E)-7-(6-Isopropyl-2H-chromen-3-yl) hepta-2,4,6-trienoic acid] | 
5 |  | CCOC(=O)/C=C(C)/C=C/C=C(\C)C1=Cc2cc(-c3ccccc3)ccc2OC1 [Example 25, Ethyl (2E,4E,6E)-3-methyl-7-(6-phenyl-2-H-chromen-3-yl)octa-2,4,6-trienoate] | inhibition at 50 µM (mouse calvaria [2]): 15%
6 | 5 | Cc1cc2c(c(C(C)(C)C)c1)OCC(/C=C/C=C/C=C/C(=O)O)=C2 [Example 11, (2E,4E,6E)-7-(6-Methyl-8-tert.-butyl-2H-chromen-3-yl)hepta-2,4,6-trienoic acid] | 
20 | 50 | Cc1cc(Cl)c2c(c1)C=C(/C=C/C=C/C=C/C(=O)O)CO2 [Example 14, (2E,4E,6E)-7-(6-Methyl-8-chloro-2H-chromen-3-yl)hepta-2,4,6-trienoic acid] | 
8 | 30 | O=C(O)/C=C/C=C/C=C/C1=Cc2cc(Cl)cc(Cl)c2OC1 [Example 20, (2E,4E,6E)-7-(6,8-Dichloro-2H-chromen-3-yl) hepta-2,4,6-trienoic acid] | 
